The source of these data is paper PMC10247784, “Physiological activation of human and mouse bitter taste receptors by bile acids” (Communications Biology, 2023).

Where “and” joins values, the source holds several entries; their conditions need not be identical. Equal entries are not always repeated.

What all share (assay type): cell-based
One test deals with T1, human TAS2R4 (Homo sapiens, UniProt Q9NYW5).
T1 construct: expressed in transfected cells; host or cells: HEK293T-Gα16gust44
T1 sequence (Q9NYW5 1-299): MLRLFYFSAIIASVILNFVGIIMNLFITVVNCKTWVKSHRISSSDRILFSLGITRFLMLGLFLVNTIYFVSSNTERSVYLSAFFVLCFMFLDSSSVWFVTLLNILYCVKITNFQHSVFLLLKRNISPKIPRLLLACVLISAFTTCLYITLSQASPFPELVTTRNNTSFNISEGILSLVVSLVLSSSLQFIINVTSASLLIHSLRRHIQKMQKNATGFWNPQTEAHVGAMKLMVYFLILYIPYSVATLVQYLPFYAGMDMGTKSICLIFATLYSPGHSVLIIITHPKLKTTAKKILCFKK
As to the kind of experiment: Calcium imaging assay (FLIPR), HEK293T-Gα16gust44 cells transfected with human TAS2R4. The note with it: TAS2R4, positive control at 3 mM. As for the experimental part: (§1) This set of bile acids was chosen because of their commercial availability in high purities, their diversity within the class of bile acids and their previous detection and quantitation in human blood. Stock solutions were prepared in DMSO.
(§2) As basal growth medium for the HEK293T-Gα16gust44 cell line[17],[59] served Dulbecco’s modified eagle medium (DMEM) (Thermo Fisher Scientific, Darmstadt, Germany) supplemented with 10 % fetal bovine serum (Sigma-Aldrich, Steinheim, Germany), 2 mM L-glutamine (Sigma-Aldrich, Steinheim, Germany), 100 units/ml penicillin (Sigma Aldrich, Steinheim, Germany) and 100 µg/ml streptomycin (Sigma Aldrich, Steinheim, Germany). Growth conditions were 37 °C, 5 % CO2 and saturated air-humidity[60].
(§3) HEK293T-Gα16gust44 cells were seeded on poly-D-lysine (10 µg/ml) coated 96-well plates to reach a confluence of 40-60 % the next day. For transient transfection 150 ng of plasmid DNA containing the receptor of interest and 0.3 µl lipofectamine 2000 (Thermo Fisher Scientific, Darmstadt, Germany) per well were used and transfection took place according to the manual of lipofectamine 2000. […] The empty vector DNA (mock) was transfected as negative control[14],[41].
(§4) Cells were loaded using the calcium-sensitive fluorescent dye Fluo-4-AM (Abcam, Cambridge, Great Britain) in the presence of 2.5 mM probenecid (Sigma-Aldrich, Steinheim, Germany) the day after transfection[13],[41]. 1 h after loading, cells were washed with C1 buffer using a BioTek Cell Washer, incubated in the dark for half an hour and washed again. For automated agonist application and measurement of fluorescence changes, a FLIPR^TETRA device (Molecular Devices, San José, United States) was used. Viability of cells was tested by application of 100 nM Somatostatin 14 (Bachem, Bubendorf, Switzerland)[42].
(§5) Measured data were negative control corrected by subtracting the signal of the mock-transfected cells and exported to Microsoft Excel using the FLIPR software ScreenWorks 4.2. In Microsoft Excel software, standardization of maximum fluorescence intensities to the basal fluorescence and normalization to the buffer-only control was done to calculate the relative fluorescence changes (ΔF/F).
(§6) Initial screening experiments performed in duplicate wells were confirmed by at least one replication and representative traces were selected for display. All dose-response relationships were determined by three independent experiments (biological replicates) performed in duplicates (technical replicates). Threshold concentrations, defined as lowest substance concentrations leading to statistically significant elevated fluorescence changes in receptor-transfected cells compared with empty vector-transfected cells, were determined using SigmaPlot with Student’s t-test to evaluate statistical significance (p < 0.01).

The target in a further test is T2, human TAS2R46 (Homo sapiens, UniProt P59540).
T2 construct: expressed in transfected cells; host or cells: HEK293T-Gα16gust44
T2 sequence (P59540 1-309): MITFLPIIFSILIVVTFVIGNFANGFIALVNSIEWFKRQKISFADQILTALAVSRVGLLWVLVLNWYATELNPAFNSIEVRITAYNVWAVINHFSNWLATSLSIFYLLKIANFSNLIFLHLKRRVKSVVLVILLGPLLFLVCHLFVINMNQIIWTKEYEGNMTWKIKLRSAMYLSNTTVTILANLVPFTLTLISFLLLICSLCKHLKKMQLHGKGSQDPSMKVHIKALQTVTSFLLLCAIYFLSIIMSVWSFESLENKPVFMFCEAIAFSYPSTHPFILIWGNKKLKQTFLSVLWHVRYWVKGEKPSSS
As to the kind of experiment: Calcium imaging assay (FLIPR), HEK293T-Gα16gust44 cells transfected with human TAS2R46. The note with it: TAS2R46, positive control at 10 µM. As for the experimental part: as §1, §2, §3, §4, §5, §6

A further test has as its target T3, human TAS2R14 (Homo sapiens, UniProt Q9NYV8).
T3 construct: expressed in transfected cells; host or cells: HEK293T-Gα16gust44
T3 sequence (Q9NYV8 1-317): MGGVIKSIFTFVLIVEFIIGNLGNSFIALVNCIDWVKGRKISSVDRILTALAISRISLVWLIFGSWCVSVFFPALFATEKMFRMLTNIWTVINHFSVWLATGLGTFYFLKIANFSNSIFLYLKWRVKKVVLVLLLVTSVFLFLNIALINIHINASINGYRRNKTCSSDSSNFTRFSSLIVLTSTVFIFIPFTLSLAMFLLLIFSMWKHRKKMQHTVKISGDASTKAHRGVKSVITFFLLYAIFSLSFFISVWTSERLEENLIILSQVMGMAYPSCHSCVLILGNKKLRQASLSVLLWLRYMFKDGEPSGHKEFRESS
As to the kind of experiment: Calcium imaging assay (FLIPR), HEK293T-Gα16gust44 cells transfected with human TAS2R14. As for the experimental part:
as §1, §2, §3, §4, §5, §6

Another test addresses T4, human TAS2R39 (Homo sapiens, UniProt P59534).
T4 construct: expressed in transfected cells; host or cells: HEK293T-Gα16gust44
T4 sequence (P59534 1-338): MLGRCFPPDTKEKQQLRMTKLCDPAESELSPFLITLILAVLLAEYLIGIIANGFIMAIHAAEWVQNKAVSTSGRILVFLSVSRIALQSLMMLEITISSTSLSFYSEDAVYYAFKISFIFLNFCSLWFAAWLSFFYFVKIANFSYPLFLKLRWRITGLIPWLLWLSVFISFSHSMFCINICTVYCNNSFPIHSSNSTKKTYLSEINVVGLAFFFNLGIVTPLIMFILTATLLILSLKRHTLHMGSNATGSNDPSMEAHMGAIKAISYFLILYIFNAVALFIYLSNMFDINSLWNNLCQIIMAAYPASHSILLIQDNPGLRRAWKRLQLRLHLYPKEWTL
As to the kind of experiment: Calcium imaging assay (FLIPR), HEK293T-Gα16gust44 cells transfected with human TAS2R39. The settings on record: TAS2R39, positive control at 3 mM. As for the experimental part:
as §1, §2, §3, §4, §5, §6

The next test has as its target T5, human TAS2R1 (Homo sapiens, UniProt Q9NYW7).
T5 construct: expressed in transfected cells; host or cells: HEK293T-Gα16gust44
T5 sequence (Q9NYW7 1-299): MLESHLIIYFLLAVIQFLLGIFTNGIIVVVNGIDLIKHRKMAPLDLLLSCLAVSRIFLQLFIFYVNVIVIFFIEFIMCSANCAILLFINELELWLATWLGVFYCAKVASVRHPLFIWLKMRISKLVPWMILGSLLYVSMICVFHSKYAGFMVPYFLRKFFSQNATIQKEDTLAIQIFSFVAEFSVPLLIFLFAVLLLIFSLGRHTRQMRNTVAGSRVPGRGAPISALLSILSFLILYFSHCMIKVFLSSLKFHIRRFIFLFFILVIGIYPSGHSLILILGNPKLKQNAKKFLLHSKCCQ
As to the kind of experiment: Calcium imaging assay (FLIPR), HEK293T-Gα16gust44 cells transfected with human TAS2R1. The settings on record: TAS2R1, positive control at 1 mM. As for the experimental part: as §1, §2, §3, §4, §5, §6

With `COc1cc2c(c(OC)c1OC)-c1ccc(OC)c(=O)cc1[C@@H](NC(C)=O)CC2` [Colchicin], the “Efficacy = maximal amplitude (ΔF/F)” value on human TAS2R4 (mean) is 0.02059. In addition, the “Efficacy (maximal amplitude ΔF/F), individual data points” value (from here on “Efficacy (maximal amplitude ΔF/F)”) on human TAS2R4 (single replicates) is 0.02499 and 0.02039 and 0.01223.
As for `O=C1C[C@@H]2OCC=C3CN4CC[C@]56c7ccccc7N1[C@H]5[C@H]2[C@H]3C[C@H]46` [Strychnin], at human TAS2R46 (single replicates), the “Efficacy (maximal amplitude ΔF/F)” value is 0.1901 and 0.2368 and 0.2851.
As to `COc1cccc2c1cc([N+](=O)[O-])c1c(C(=O)O)cc3c(c12)OCO3` [aristolochic acid, reference compound], the “Efficacy = maximal amplitude (ΔF/F)” value on human TAS2R14 (TAS2R14, positive control at 10 µM, mean) amounted to 0.4945. Further, the “Efficacy (maximal amplitude ΔF/F)” value at human TAS2R14 (TAS2R14, positive control at 10 µM, single replicates) is 0.6939 and 0.4242 and 0.3654. For the same compound, the “Efficacy (signal amplitude) versus control stimulus, TAS2R14” value on human TAS2R14 (highest applied concentrations, control 10 µM aristolochic acid) is “about twice as high as the most effective bile acids”.
On to `CC[N+](CC)(CC(=O)Nc1c(C)cccc1C)Cc1ccccc1` [denatonium benzoate, reference compound], for which, on human TAS2R39 (mean), the “Efficacy = maximal amplitude (ΔF/F)” value came out at 0.08257. In addition, the “Efficacy (maximal amplitude ΔF/F)” value at human TAS2R39 (single replicates) is 0.09973 and 0.06456 and 0.07602.
As to `C=C(C)[C@@H]1[C@H]2OC(=O)[C@@H]1[C@]1(O)C[C@H]3O[C@]34C(=O)O[C@H]2[C@]14C` [picrotoxinin, reference compound], the “Efficacy = maximal amplitude (ΔF/F)” value on human TAS2R1 (mean) is 0.1084. The “Efficacy (maximal amplitude ΔF/F)” value at human TAS2R1 (single replicates) is 0.08063 and 0.1121 and 0.1325.
Consider `O=C1C[C@@H]2OCC=C3CN4CC[C@]56c7ccccc7N1[C@H]5[C@H]2[C@H]3C[C@H]46` [strychnine, reference compound], for which, at human TAS2R46 (mean), the “Efficacy = maximal amplitude (ΔF/F)” value is on record as 0.2373.
